Laboratory results as given in ChEMBL document CHEMBL1201862, “PubChem BioAssay data set” (2004).
Active and inactive are the calls of the source. Cut-off read from the data, not from the text of the source, for most assays here: actives have a measured EC50 and inactives only a lower limit.

Key:
Wee1-like protein kinase = Wee1-like protein kinase (Homo sapiens, UniProt P30291); assay: Dose Response Cell-based Assay for Inhibitors of Wee1 Degradation. [Related pubchem assays: 1410, 1321 ]; type: functional
[1] = target: G2/mitotic-specific cyclin-B1 (Homo sapiens, UniProt P14635); assay: Counterscreen assay for inhibitors of Wee1 degradation: dose response cell-based assay to identify inhibitors of cyclin B degradation. [Related pubchem assays: 1410, 1321 ]; type: functional
Streptokinase A = target: T1, Streptokinase A (Streptococcus pyogenes serotype M1, UniProt P10520); assay: S. pyogenes streptokinase expression inhibitors, potency, dose response, plasminogen activation absorbance, OD405 (AID 1914); type: functional, Streptococcus pyogenes M1 GAS;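 note: secreted streptokinase activity via plasminogen activation per viability signal from cell pellet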
T1 sequence (P10520 whole entry): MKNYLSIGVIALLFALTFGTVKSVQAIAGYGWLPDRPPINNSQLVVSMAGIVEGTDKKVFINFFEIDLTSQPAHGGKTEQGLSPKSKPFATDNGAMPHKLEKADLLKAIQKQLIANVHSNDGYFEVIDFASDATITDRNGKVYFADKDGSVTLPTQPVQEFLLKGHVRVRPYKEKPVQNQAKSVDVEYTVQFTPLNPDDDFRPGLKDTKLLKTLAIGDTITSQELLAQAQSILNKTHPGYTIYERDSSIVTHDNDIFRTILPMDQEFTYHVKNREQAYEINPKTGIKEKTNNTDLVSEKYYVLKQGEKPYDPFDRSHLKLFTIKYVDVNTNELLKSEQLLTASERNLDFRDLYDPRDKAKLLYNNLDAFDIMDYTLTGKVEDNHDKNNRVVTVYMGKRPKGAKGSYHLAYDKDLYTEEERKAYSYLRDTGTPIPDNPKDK

[2] = growth suppression of PTEN-null colon cells, dose response, cell-based, HCT116 PTEN knockout (AID 1047); type: functional;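 note: HCT116 colon tumor cells with PTEN knocked out; cells exposed to compound for 60 hours before readout; potency for loss of cell viability measured by luminescence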
[3] = target: T2, Mannose-6-phosphate isomerase (Homo sapiens, UniProt P34949); assay: human PMI inhibitors, high substrate, primary screen, biochemical, fluorescence intensity, high mannose 6-phosphate (AID 1220)
T2 sequence (P34949 whole entry): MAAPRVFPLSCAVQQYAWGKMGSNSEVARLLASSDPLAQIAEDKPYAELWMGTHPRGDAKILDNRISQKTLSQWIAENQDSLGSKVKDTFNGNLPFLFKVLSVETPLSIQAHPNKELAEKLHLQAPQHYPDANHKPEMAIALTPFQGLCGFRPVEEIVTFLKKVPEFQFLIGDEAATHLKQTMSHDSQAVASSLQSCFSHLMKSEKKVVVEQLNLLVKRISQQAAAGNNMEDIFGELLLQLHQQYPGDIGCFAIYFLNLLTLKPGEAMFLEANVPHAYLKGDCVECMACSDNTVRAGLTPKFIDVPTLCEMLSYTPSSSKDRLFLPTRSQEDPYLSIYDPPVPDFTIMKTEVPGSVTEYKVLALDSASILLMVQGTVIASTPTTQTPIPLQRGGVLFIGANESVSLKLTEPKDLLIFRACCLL

[4] = inhibitors of SNCA 5'UTR-driven reporter translation, confirmation, H4 neuroglioma cells, luminescence (AID 1988); type: functional, cell-based
Streptococcus = assay: Group A Streptococcus viability loss, dose response, counter-screen for streptokinase expression inhibitor project, luminescence, BacTiterGlo (AID 1915); type: functional, organism-based;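 note: potency for reduction of bacterial viability or growth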
Protein RecA = target: T3, Protein RecA (Mycobacterium tuberculosis, UniProt P9WHJ3); assay: Fluorescence Cell-Free Homogeneous Dose Retest to Identify Inhibitors of RecA-Intein Splicing Activity. [Related pubchem assays (depositor defined):AID2097, AID2223, AID489010, AID492950]; type: functional
T3 sequence (P9WHJ3 whole entry): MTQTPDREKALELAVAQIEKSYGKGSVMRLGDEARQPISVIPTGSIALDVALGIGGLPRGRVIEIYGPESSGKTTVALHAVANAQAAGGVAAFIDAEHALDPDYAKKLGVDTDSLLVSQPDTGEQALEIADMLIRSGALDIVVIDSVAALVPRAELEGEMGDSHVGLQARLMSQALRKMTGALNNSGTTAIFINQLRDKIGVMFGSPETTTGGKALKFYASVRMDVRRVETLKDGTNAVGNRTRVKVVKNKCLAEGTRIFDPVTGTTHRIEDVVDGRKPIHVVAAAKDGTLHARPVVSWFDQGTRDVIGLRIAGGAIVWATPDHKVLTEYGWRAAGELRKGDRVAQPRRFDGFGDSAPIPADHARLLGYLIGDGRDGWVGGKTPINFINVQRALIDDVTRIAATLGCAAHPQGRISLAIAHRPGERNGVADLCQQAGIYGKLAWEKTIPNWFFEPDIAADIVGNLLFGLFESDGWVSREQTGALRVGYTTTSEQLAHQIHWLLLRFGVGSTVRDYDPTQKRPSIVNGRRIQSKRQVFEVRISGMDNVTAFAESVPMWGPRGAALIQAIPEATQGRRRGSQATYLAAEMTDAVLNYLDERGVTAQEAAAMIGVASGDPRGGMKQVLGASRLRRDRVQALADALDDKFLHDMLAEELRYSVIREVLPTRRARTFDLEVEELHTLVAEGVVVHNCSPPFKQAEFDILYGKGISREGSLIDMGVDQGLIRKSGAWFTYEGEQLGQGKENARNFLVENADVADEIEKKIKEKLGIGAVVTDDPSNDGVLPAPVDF

[5] = Luminescence Cell-Based Dose Response HTS to Identify Inhibitors of 5'UTR Stem-Loop Driven Prion Protein mRNA Translation in H4 Neuroglioblastoma Cells. [Related pubchem assays: 1827 (Project Summary), 1813 (Primary HTS)]; type: functional
[6] = target: T4, Replicative DNA helicase DnaB (Mycobacterium tuberculosis, UniProt P9WMR3); assay: DnaB intein splicing inhibitors, dose response, biochemical, cell-free fluorescence (AID 449749); type: functional
T4 sequence (P9WMR3 whole entry): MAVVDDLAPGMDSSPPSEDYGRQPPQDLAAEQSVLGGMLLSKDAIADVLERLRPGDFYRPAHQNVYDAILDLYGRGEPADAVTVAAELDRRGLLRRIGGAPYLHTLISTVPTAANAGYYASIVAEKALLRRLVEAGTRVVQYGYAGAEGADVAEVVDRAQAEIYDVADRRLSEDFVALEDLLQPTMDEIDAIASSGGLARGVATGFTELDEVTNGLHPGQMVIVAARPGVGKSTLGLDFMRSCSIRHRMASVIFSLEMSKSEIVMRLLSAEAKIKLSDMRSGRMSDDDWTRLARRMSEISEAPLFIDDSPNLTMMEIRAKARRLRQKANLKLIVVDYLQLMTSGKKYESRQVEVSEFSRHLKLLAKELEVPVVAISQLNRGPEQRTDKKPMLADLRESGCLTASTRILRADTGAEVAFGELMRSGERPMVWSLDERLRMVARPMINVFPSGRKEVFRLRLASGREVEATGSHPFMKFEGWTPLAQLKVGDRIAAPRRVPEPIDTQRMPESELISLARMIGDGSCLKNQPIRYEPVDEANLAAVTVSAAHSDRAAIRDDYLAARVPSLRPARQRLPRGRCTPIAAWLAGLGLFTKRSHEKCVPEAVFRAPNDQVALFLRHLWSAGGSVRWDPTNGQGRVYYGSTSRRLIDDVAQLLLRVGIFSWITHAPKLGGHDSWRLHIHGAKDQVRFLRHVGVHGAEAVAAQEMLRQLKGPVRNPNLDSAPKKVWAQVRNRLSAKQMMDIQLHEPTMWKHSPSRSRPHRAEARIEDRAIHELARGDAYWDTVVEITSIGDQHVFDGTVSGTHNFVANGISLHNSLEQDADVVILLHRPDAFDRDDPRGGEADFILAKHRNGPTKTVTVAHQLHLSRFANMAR

BJ = assay: cytotoxicity toward Ras-transformed BJeLR fibroblasts, dose response, cell-based, alamar blue fluorescence, cherrypicked samples (AID 2631); type: functional; conditions: Homo sapiens;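 note: confirmatory dose-response assay in RAS-dependent BJ fibroblasts engineered with TERT, LT and ST, with cytotoxicity read by fluorescence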
[7] = growth suppression of beta-catenin-knockout colon cells, dose response, cell-based, HCT116, human colon tumor (AID 1045); type: functional;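 note: HCT116 colon tumor cells with beta catenin knocked out; cells exposed to compound for 60 hours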
[8] = C. albicans growth with fluconazole, confirmation, fluorescence, retest (AID 2467); type: functional, cell-based
[9] = Luminescence-based counterscreen assay for KLF5 inhibitors: dose response cell-based high throughput screening assay to identify cytotoxic compounds using the IEC-6 intestinal epithelial cell line. [Related pubchem assays: 1700 (Primary screen.), 1834 (Confirmation screen.), 1858 (Summary AID.), 1905 (Counterscreen.)]; type: functional
INS1 = assay: beta cell apoptosis inhibitors, cytokine rescue, dose response, luminescence, retest (AID 449756); type: functional, cell-based; conditions: Rattus norvegicus;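 note: cell death triggered by IL-1 beta plus TNF-alpha plus IFN-gamma mixture; protective hits raise ATP signal compared with cytokine alone wells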
[10] = NIH-3T3 fibroblast cytotoxicity, dose response, cytotoxicity control, cell-based, fluorescence, Alamar Blue, secondary assay (AID 2327); type: functional;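 note: NIH-3T3 mouse fibroblasts cultured with fluconazole at 8 µg/mL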
[11] = tested on: Streptococcus sp. 'group A'; assay: growth inhibition of control SK(-) GAS strain, dose response, counter-screen for streptokinase expression inhibitor project, luminescence, kanamycin, BacTiterGlo, confirmation (AID 1900); type: functional, organism-based
[12] = inhibitors of SNCA 5'UTR-driven translation, confirmation, luminescence, H4 neuroglioblastoma cells, dose confirmation (AID 2454); type: functional, cell-based;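 note: H4 neuroglioblastoma cells carrying an alpha-synuclein 5'UTR luciferase reporter; potency for inhibition of the luciferase signal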
[13] = microbe, parasite or virus in culture; type: functional; conditions: Mycobacterium tuberculosis
[14] = luciferase reporter signal reduction – luminescence, H4-C neuroglioblastoma cells, dose response (AID 2458); type: functional, cell-based;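 note: H4 neuroglioblastoma cells stably carrying a luciferase reporter gene fusion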
[15] = inhibitors of firefly luciferase expression or activity, dose response, H4 neuroglioma cells, luminescence (AID 1990); type: functional, cell-based
cells = type: functional, cell-based

G2/mitotic-specific cyclin-B1, sequence (P14635 whole entry): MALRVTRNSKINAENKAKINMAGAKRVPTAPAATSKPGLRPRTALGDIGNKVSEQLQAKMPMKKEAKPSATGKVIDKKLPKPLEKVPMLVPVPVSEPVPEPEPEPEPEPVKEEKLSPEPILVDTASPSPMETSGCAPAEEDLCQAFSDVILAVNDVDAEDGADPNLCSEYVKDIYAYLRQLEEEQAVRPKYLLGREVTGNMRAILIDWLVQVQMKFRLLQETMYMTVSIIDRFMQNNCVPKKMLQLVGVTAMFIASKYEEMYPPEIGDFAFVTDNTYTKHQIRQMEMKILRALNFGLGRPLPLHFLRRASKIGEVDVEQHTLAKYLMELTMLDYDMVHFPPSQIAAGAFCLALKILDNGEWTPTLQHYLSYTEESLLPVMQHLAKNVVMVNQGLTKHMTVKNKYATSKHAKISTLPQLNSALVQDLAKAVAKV
Wee1-like protein kinase, sequence (P30291 whole entry): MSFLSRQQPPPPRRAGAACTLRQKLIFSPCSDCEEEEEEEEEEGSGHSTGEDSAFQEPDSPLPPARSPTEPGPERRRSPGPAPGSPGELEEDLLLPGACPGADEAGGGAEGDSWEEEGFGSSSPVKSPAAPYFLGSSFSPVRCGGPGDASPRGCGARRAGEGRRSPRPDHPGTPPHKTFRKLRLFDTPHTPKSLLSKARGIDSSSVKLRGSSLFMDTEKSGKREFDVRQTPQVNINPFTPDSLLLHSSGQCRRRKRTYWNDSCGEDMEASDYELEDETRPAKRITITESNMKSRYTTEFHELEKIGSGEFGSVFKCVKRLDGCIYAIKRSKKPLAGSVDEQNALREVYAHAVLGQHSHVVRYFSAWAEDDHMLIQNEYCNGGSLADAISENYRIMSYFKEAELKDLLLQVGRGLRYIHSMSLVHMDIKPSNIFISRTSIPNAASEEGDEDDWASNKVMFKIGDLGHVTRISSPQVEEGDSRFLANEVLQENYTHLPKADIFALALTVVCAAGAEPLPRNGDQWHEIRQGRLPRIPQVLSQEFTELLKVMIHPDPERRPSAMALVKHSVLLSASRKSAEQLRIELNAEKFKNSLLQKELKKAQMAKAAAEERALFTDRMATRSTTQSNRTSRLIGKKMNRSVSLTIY

COc1cc(C2=NOC(C(=O)NCc3cccs3)C2)cc(OC)c1OC (centres undefined)
EC50 (Wee1-like protein kinase): > 49.7 µM (not active) | EC50 [1]: > 49.7 µM (not active)

C/N=C1\C(=O)c2ccccc2C(O)=C1N(C(C)=O)c1ccc(Br)cc1
EC50 (Streptokinase A): 23.9 µM (active) | EC50 [2]: 0.688 µM (active) | IC50 [3]: > 50 µM (not active) | EC50 [4]: 8.7 µM (active) | EC50 (Streptococcus): > 150 µM (not active) | EC50 (Protein RecA): 0.795 µM (active) | EC50 [5]: 11.4 µM (active) | AC50 [6]: 11.3 µM (active) | EC50 (BJ): 2.38 µM (active) | EC50 [7]: 0.594 µM (active) | EC50 [8]: 0.242 µM (active) | IC50 [9]: 5.7 µM (active) | AC50 (INS1): 0.548 µM (active) | EC50 [10]: 3.59 µM (inconclusive) | EC50 [11]: 6.44 µM (active)

Cc1ccc(C(=O)Nc2cccc(C(F)(F)F)c2)cc1Nc1[nH]cnc2ncnc1-2
EC50 [4]: < 0.1 µM (active) | EC50 [12]: > 12 µM (not active) | CC50 [13]: 34.8 µM (active) | EC50 [14]: 1.22 µM (active) | EC50 [5]: 11.8 µM (active) | EC50 [15]: < 0.1 µM (active) | EC50 (cells): 4.59 µM (active)
